Key:
acpP mRNA = experiment: Northern blot of acpP transcript levels after PNA treatment; format: cell-based, Salmonella enterica serovar Typhimurium; details: 5 μM, 5, 10 or 15 min, 10^6 cfu/ml; two biological replicates
Method: For northern blotting, equal RNA amounts were used for gel electrophoresis (10 μg in Figure 4B; 100–150 ng in Figure 4E) and subsequent transfer to Hybond+ membranes (GE Healthcare Life Sciences). After crosslinking (0,12 J/cm^2), membranes were blocked using ROTI®Hybri-Quick (Roth) and incubated with RNA-specific digoxigenin (DIG; Roche)- or radioactively-labeled (5′ ^32P-labeling ([28])) oligonucleotides. In vitro transcription (MEGAscript T7 polymerase, Ambion), DIG-labeling of probes and northern blot detection was performed according to the manufacturer's instructions. Sequences of all the oligonucleotides (purchased from Eurofins Genomics or Sigma) employed for northern blot probe generation or RT-qPCR are listed in Supplementary Table S2. Signals were visualized on a phosphorimager (Typhoon FLA 7000, GE Healthcare) for radioactive probes, or using an ImageQuant (LAS 4000, GE Healthcare) for DIG-labeled probes.
Bacterial overnight cultures were diluted 1:100 in fresh MHB and grown to OD600 0.5. […]
Figure 4. […] In brief, 10^9 cfu were pelleted for the isolation of RNA, which was subsequently analyzed using (A) a denaturing polyacrylamide gel (1 μg/lane) and (B) northern blotting (10 μg/lane). […] (B) Transcript levels of two sRNAs, SroC and SdhX (SdhX1, SdhX2), and the loading control 5S were detected using sequence specific radioactive-labeled probes. […]

fabF mRNA = experiment: RNA-seq differential expression, second gene of the dicistron; format: cell-based, Salmonella enterica serovar Typhimurium; details: edgeR, versus water; 15 min; 5 μM KFF-/RXR-constructs, 10 μM Tat-constructs; triplicates
Method: Bacterial overnight cultures were diluted 1:100 in fresh MHB and grown to OD600 0.5. The obtained cultures were diluted to ∼10^6 cfu/ml in non-cation-adjusted MHB. Afterward, the bacterial solution was transferred into low-binding 5 ml tubes (LABsolute) along with the 20× PNA, peptide or PPNA solution. The final concentrations were 5 μM for KFF- and RXR-PNAs, and 10 μM for Tat-PNAs. Equimolar concentrations were used for the respective peptide control conditions. As a negative control, cells were treated with the respective volume of sterile nuclease-free water, which was used as solvent for the test compounds. […]
DNase treatment, cDNA library preparation and sequencing was conducted at Vertis (Munich, Germany). […] The cDNA was purified using the Agencourt AMPure XP kit (Beckman Coulter Genomics) and was analyzed by capillary electrophoresis. […] The cDNA pool was sequenced on an Illumina NextSeq 500 system using 75 bp read length.
Reads from the RNA-Seq experiments were trimmed, filtered and mapped against the S. enterica subsp. enterica serovar Typhimurium SL1344 reference genome and the three plasmids pSLT_SL1344, pCol1B9_SL1344 (other name is p2), and pRSF1010_SL1344 ([19]). […]
All downstream analysis was performed using packages from the R/Bioconductor project. The raw read counts were imported and analyzed with edgeR (v3.30.0). […]

KFFKFFKFFK [KFF-acpP, KFF peptide conjugated to 10-mer antisense PNA against the translational start site of acpP]
acpP mRNA levels (northern blot) (acpP mRNA): rapid decrease of acpP mRNA levels from 5 min post treatment onwards
logFC fabF (fabF mRNA): -1.1555
